Literature values as cited in patent US20220151901A1, “A METHOD OF COLORING KERATINOUS MATERIAL COMPRISING THE USE OF AN ORGANOSILICON COMPOUND, A COLORING COMPOUND, AND A MIXTURE OF SILICONES” (Henkel AG & Co. KGaA, priority 2019, published 2022).

Conditions: 25° C.

Compound | solubility in water | solubility in water (in words)
CCN(Cc1cccc(S(=O)(=O)[O-])c1)c1ccc(C(=C2C=CC(=[N+](CC)Cc3cccc(S(=O)(=O)[O-])c3)C=C2)c2ccccc2S(=O)(=O)[O-])cc1.[Na+].[Na+] [Acid Blue 9] | more than 20 % by weight | –
Nc1cc(S(=O)(=O)[O-])cc2cc(S(=O)(=O)[O-])c(N=Nc3ccccc3)c(O)c12.[Na+].[Na+] [Acid Red 33, disodium salt of 5-amino-4-hydroxy-3-(phenylazo)-naphthalene-2,7-disulphonate] | 2500 µg/mL | –
O=S(=O)([O-])c1ccc(N=Nc2c(O)ccc3ccccc23)cc1.[Na+] [Acid Orange 7, sodium salt of 4-[(2-hydroxy-1-naphthyl)azo]benzene sulphonate] | more than 7 g/L | –
O=C([O-])C1=NN(c2ccc(S(=O)(=O)[O-])cc2)C(=O)C1N=Nc1ccc(S(=O)(=O)[O-])cc1.[Na+].[Na+].[Na+] (centres unmarked) [Acid Yellow 23, trisodium salt of 4,5-dihydro-5-oxo-1-(4-sulfophenyl)-4-((4-sulfophenyl)azo)-1H-pyrazole-3-carboxylic acid] | – | highly soluble
O=C([O-])c1c(Cl)c(Cl)c(Cl)c(Cl)c1-c1c2c(Br)cc(=O)c(Br)c-2oc2c(Br)c(O)cc(Br)c12.O=C([O-])c1c(Cl)c(Cl)c(Cl)c(Cl)c1-c1c2c(Br)cc(=O)c(Br)c-2oc2c(Br)c(O)cc(Br)c12.[Na+].[Na+] [Acid Red 92, disodium salt of 3,4,5,6-tetrachloro-2-(1,4,5,8-tetrabromo-6-hydroxy-3-oxoxanthen-9-yl)benzoic acid] | greater than 10 g/L | –
